Results published in patent US4543353A, “Ester and amide derivatives of 13,14-didehydro prostaglandins” (Farmitalia Carlo Erba S.p.A., priority 1981, dated 1985).

Tests used:
[1] = duration of activity when administered orally; assay type: in vivo
hamster = assay: luteolytic activity in the hamster after subcutaneous injection; assay type: in vivo; details: Mesocricetus auratus, sc, according to A. B. Labhsetwar, Nature, vol. 230, page 528 (1971)
Description: In this application, the compounds are administered either by intravenous infusion at a dose of approximately 0.01-0.05 μg/kg/minute until the end of labor, or by mouth at a single or multiple doses from about 0.05 mg to about 5 mg pro dose. […] For example, the luteolytic activity of the compound 5c-9α,11α,15(S)-trihydroxy-18,19,20-trinor-17-cyclohexyl-prost-5-en-13-ynoic acid 2-ethoxy-ethyl ester, expressed as ED50 value and evaluated in the hamster after subcutaneous injection [according to A. B. LABHSETWAR, Nature, vol.

[2] = orientative acute toxicity, LD50, single oral administration; details: mouse, in vivo, mice, nine hours food deprived, assessed on the seventh day
Description: The evaluation of the toxicity (as orientative acute toxicity, i.e. LD50) was carried out, e.g., as follows: nine hours food deprived mice were treated orally with single administration of increasing doses, then housed and normally fed; the LD50 was assessed on the seventh day after the treatment.

SMILES	activity duration compared with the parent acid or alkyl ester derivatives [1]	ED50 (hamster) [mg/kg]	LD50 at 168 h [2] [mg/kg]
CCOCCOC(=O)CCC/C=C\C[C@@H]1[C@@H](C#C[C@@H](O)CC2CCCCC2)[C@H](O)C[C@@H]1O [5c-9α,11α,15(S)-trihydroxy-17,18,19,20-tetranor-16-cyclohexyl-prost-5-en-13-ynoic acid 2-ethoxy-ethyl ester]	more lasting activity		
CCOCCOC(=O)CCC/C=C\C[C@@H]1[C@@H](C#C[C@@H](O)CCC2CCCCC2)[C@H](O)C[C@@H]1O [5c-9α,11α,15(S)-trihydroxy-18,19,20-trinor-17-cyclohexyl-prost-5-en-13-ynoic acid 2-ethoxy-ethyl ester]		0.005	
COC(=O)CCC/C=C\C[C@@H]1[C@@H](C#C[C@@H](O)CCC2CCCCC2)[C@H](O)C[C@@H]1O [5c-9α,11α,15(S)-trihydroxy-18,19,20-trinor-17-cyclohexyl-prost-5-en-13-ynoic acid methyl ester, reference compound]		0.009	
CCOCCOC(=O)CCC/C=C\C[C@@H]1[C@@H](C#C[C@@H](O)CCCCC2CCCCC2)[C@H](O)C[C@@H]1O [5c-9α,11α,15(S)-trihydroxy-20-nor-19-cyclohexyl-prost-5-en-13-ynoic acid 2-ethoxy-ethyl ester]	more lasting activity		> 3000
